{"source": "paper PMC12413947", "about": "“Caffeine Acts as an Agonist of Siglec-6, Inhibits MRGPRX2-Triggered Mast Cell Degranulation and Anaphylactoid Reactions” (Mediators of Inflammation, 2025)", "target": "T1, Siglec-6 (Homo sapiens, UniProt O43699)", "T1 construct": "gene SIGLEC6; captured on CM5 chip", "T1 sequence (O43699 27-347 limits assumed)": "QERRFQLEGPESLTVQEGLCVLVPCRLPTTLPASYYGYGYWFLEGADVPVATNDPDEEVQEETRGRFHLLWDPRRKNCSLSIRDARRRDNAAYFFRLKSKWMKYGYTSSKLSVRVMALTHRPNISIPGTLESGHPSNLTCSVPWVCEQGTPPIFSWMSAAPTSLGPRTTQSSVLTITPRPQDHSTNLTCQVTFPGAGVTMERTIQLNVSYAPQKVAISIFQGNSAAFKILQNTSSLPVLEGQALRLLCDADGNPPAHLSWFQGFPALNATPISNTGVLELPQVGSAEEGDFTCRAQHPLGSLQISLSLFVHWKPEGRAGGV", "experiment": "surface plasmon resonance (Biacore T200)", "format": "binding", "description": "surface plasmon resonance (Biacore T200) on Siglec-6 | The binding affinity between caffeine and Siglec-6 protein is with a calculated KD of […]", "data": [{"smiles": "Cn1c(=O)c2c(ncn2C)n(C)c1=O", "note": "[caffeine]", "values": [{"measurement": "Kd", "value": 176, "unit": "nM"}]}]}
